Results on 12 compounds are retold here after article PMC5786798, “Discovery of New Inhibitors of Toxoplasma gondii via the Pathogen Box” (Antimicrobial Agents and Chemotherapy, 2018).

For one data set, the system named is Toxoplasma gondii. The following applies: effect against Toxoplasma; literature value, no reference given; cited from earlier work.
The test system of data set [1] is T. gondii tachyzoites (RH strain, type I). The experiment in a line: Determination of IC50s, in vitro chemosensitivity of T. gondii (ELISA, 72 h). The settings on record: for selective antitoxoplasmic activity according to hit criteria: hit criteria IC50 <2 μM and SI >4; for IC50: T. gondii RH tachyzoites on Vero cells, 72 h, ELISA, 2-fold dilution series 2 to 0.015 μM, means from four values from two experiments. (In general: ELISA stands for enzyme-linked immunosorbent assay.)

Data set [2] in a line: Cytotoxicity evaluation on Vero cell cultures (UptiBlue viable cell counting assay, 72 h). The format is cell-based. The following applies: African green monkey, Vero cells, means from four values from two experiments. On the procedure:
The in vitro cytotoxicity of compounds was evaluated on Vero cell cultures by using 96-well plates, since these cells were used for T. gondii growth in our model. […] After 72 h, cytotoxicity was evaluated by using the UptiBlue viable cell counting assay (Interchim). […] Spectrophotometric measurements (FLUOstar Omega microplate reader; BMG Labtech, France) were made at 570 nm and corrected at 600 nm, and blank readings were made on the mean value of the seven negative-control wells. A sample was considered toxic when the cell viability was lower than 80%. […] For a visual control, the last well of each condition was fixed with cold methanol and stained with kit RAL 555 (RAL Diagnostics, France) and examined microscopically (AxioVert 200M; Zeiss, France) at a magnification of ×20 instead of being tested with UptiBlue.

As to `OC(Cn1cncn1)(Cn1cncn1)c1ccc(F)cc1F` [fluconazole], in the data set with Toxoplasma gondii, the IC50 (commonly the concentration needed to halve the response being measured) is 3 µM. For the compound `CN1CCC(c2cc(-c3ccncc3)c(-c3ccc(F)cc3)[nH]2)CC1` [MMV688703], the results for the “selective antitoxoplasmic activity according to hit criteria” value in data set [1] and in data set [1] (listed as MV688703) were “not selective” and “did not show the criteria for inclusion as an active compound”, respectively. Consider `CC(C)(C)[C@H]1CC[C@H](CC2=C(O)C(=O)c3ccccc3C2=O)CC1` [MMV689480, buparvaquone, reference compound], for which the CC50 (usually the concentration that lowers cell viability or growth by half) at 72 h in data set [2] worked out at 8.66 µM. This lies in the single-digit micromolar range.

Turning to `O=C(Nc1ccc(N2CCNCC2)cc1)c1ccn2ncc(-c3cccc(Cl)c3)c2n1` [MMV022478], the CC50 at 72 h in data set [2] came to 2.23 µM. Against the preceding compound, the CC50 at 72 h is about 3.9-fold lower. On the same count and under the same terms, the value for `CNC(=O)c1nn(C)c2c1C(C)(C)Cc1cnc(Nc3ccc(N4CCN(C)CC4)cc3)nc1-2` [MMV676602] was 3.3 µM.

Turning to `c1ccc(-c2nc(NC3CCCCC3)cc(C3CC3)n2)nc1` [MMV021013], the midpoint of cytotoxicity in data set [2], the CC50 at 72 h, lay at 15.9 µM. The IC50 is 1.12 ± 0.035 µM in data set [1] and below 2 µM in data set [1] (Toxoplasma gondii, Vero). On to `CCC(C)n1ncn(-c2ccc(N3CCN(c4ccc(OCC5COC(Cn6cncn6)(c6ccc(Cl)cc6Cl)O5)cc4)CC3)cc2)c1=O` (stereo not shown) [itraconazole], for which the IC50 with Toxoplasma gondii was 0.5 µM.

For `COc1ccc(OC)c(NCc2ccc3nc(N)nc(N)c3c2Cl)c1` [MMV675968], it took 5.5 µM to reach half-maximal cytotoxicity in data set [2] (CC50 at 72 h). Same read-out and setting: the value for `FC(F)(F)c1cnc(Sc2nnc(-c3ccncc3)o2)c(Cl)c1` [MMV011765] was 9.48 µM; that for `O=C(Nc1ccc(C(F)(F)F)c(C(F)(F)F)c1)c1cc(Cl)ccc1O` [MMV687807] was 1.69 µM. Consider `CCc1nc(N)nc(N)c1-c1ccc(Cl)cc1` [PYR, pyrimethamine, reference compound], for which it took 10.5 µM to reach half-maximal cytotoxicity in data set [2] (CC50 at 72 h). In addition, the midpoint of inhibition in data set [1] (Toxoplasma gondii, Vero), the IC50, lay at 1.17 ± 0.076 µM. In the case of `O=C(Nc1nc(-c2ccccn2)cs1)c1cncn1-c1ccccc1` [MMV676512], the CC50 at 72 h in data set [2] came out at 3.61 µM.
